Numbers after ± are expanded uncertainties.
Legend:
[1] = Molar enthalpy of transition or fusion; conditions: Crystal; DSC
[2] = Crystal; DSC

Molar enthalpy of transition or fusion [1]: 6.84 ± 0.237 kcal/mol | Triple point temperature [2]: 440.35 ± 1.2 K
Compound: Cc1cnc(C(=O)O)cn1 [2-methylpyrazine-5-carboxylic acid]
